Laboratory results from patent US20110183925A1, “ANTI-INFLAMMATORY PEPTIDE” (NISSHIN PHARMA INC., priority 2008, published 2011).
Where no end group is shown, it is not given here. [ ]: non-standard residue; d: D form. pGlu = O=C1CC[C@@H](C(=O)O)N1

Experiments:
Caspase-1 (ICE) = target: T1, Caspase-1 (ICE) (Homo sapiens, UniProt P29466); assay: Measurement of ICE-inhibiting activity (Ac-Trp-Glu-His-Asp-AMC substrate, HPLC quantification); format: biochemical; details: 1 mg/mL peptide sample, 5 μL in reaction; 37° C., 20 minutes; Control (No Peptide) = 100%; lower = more inhibition
T1 construct: purchased Biomol; International LP
T1 sequence (P29466 120-297 limits assumed): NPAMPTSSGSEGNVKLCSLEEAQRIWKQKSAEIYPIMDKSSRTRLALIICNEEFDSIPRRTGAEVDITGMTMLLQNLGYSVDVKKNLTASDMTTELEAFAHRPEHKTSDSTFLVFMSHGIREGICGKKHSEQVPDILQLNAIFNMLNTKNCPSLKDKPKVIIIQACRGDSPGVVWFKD
T1 sequence (P29466 317-404 limits assumed): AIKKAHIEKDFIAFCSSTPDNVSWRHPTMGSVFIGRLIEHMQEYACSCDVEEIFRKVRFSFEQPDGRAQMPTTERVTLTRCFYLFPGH
Description: One mg/mL each of samples of pyroglutamyl peptides (pyroGlu-Leu, pyroGlu-Val, pyroGlu-Met, pyroGlu-Phe, pyroGlu-Gln-Gln, and pyroGlu-Pro-Gln) synthesized in Production Examples above were prepared and evaluated for ICE-inhibiting activity as follows.
Each sample (5 μL) was added to 10 μL of 2,000 μmol/L reactive substrate (Caspase-1 substrate (Ac-Trp-Glu-His-Asp-AMC) from Alexis Biochemicals), 5 μL of 10 U/μl enzyme solution (Caspase-1 from Biomol. International LP), 60 μL of buffer (50 mmol/L HEPES, pH 7.4, 100 mM NaCl, 0.1% CHAPS, 1 mM EDTA, 10% glycerol, and 10 mM DTT), and 20 μL of distilled water, which was reacted at 37° C. for 20 minutes. Thereto was added 10% trifluoroacetic acid to a final concentration of 1% to stop the reaction. The substrate and the product were separated under the following conditions using reversed-phase high-performance liquid chromatography. The substrate and the product were fluorescently measured at an excitation wavelength of 380 nm and a measuring wavelength of 460 nm for quantification.
(§1) (Chromatography Condition)
(§2) Solution A: 10% acetonitrile (0.1% TFA)/Solution B: 80% acetonitrile (0.1% TFA)
(§3) Gradient: Solution B from 50% to 100%
(§4) Measuring Wavelength: 230 nm
The results are shown in Table 2 below as the ratio of the fluorescence intensity of the product to the fluorescence intensity of the product and the substrate.

Recombinant Human TACE = target: T2, Recombinant Human TACE (Homo sapiens, UniProt P78536); assay: Measurement of TACE-inhibiting activity (fluorogenic substrate, HPLC quantification); format: biochemical; details: 1 mg/mL peptide sample, 10 μL in reaction; 37° C., 20 minutes; Control (No Peptide) = 100%; lower = more inhibition
T2 construct: purchased R&D Systems
T2 sequence (P78536 215-824): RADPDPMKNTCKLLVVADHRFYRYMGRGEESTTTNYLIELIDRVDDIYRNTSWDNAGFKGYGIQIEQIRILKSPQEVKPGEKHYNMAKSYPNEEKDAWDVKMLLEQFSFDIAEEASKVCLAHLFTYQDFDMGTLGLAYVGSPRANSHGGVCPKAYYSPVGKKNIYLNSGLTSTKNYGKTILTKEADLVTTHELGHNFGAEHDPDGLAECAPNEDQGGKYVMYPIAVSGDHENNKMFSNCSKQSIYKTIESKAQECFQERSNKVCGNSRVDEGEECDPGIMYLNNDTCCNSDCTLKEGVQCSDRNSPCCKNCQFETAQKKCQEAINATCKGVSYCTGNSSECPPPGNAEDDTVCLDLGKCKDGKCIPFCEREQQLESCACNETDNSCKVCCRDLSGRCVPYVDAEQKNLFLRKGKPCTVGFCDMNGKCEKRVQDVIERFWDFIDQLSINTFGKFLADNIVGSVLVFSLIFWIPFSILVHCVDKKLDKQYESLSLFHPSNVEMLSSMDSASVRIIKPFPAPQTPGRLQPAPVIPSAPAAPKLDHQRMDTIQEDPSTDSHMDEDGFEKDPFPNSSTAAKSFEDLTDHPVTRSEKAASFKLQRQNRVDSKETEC
Description: One mg/mL each of samples of pyroglutamyl peptides (pyroGlu-Leu, pyroGlu-Val, pyroGlu-Met, pyroGlu-Phe, pyroGlu-Gln-Gln, and pyroGlu-Pro-Gln) synthesized in Production Examples above were prepared and evaluated for TACE-inhibiting activity as follows.
Each sample (10 μL) was added to 10 μL of 1 μmol/L reactive substrate (TACE Substrate (Mac-PLAQAV-Dpa-RSSSR-NH2) from Biomol. International LP), 10 μL of 10 ng/10 μL enzyme solution (Recombinant Human TACE from R&D Systems), 50 μL of buffer (50 mmol/L Tris-HCl, pH 9.0, 5 μM ZnCl2, 0.01% Brij35), and 20 μL of distilled water, which was reacted at 37° C. for 20 minutes. Thereto was added 10% trifluoroacetic acid to a final concentration of 1% to stop the reaction. The substrate and the product were separated under the following conditions using reversed-phase high-performance liquid chromatography. The substrate and the product were fluorescently measured at an excitation wavelength of 320 nm and a measuring wavelength of 405 nm for quantification.
as §1, §2, §3, §4
The results are shown in Table 1 below as the ratio of the fluorescence intensity of the product to the fluorescence intensity of the product and the substrate.

## [pGlu]-Pro-Gln
Caspase-1 (ICE)
  ratio of the fluorescence intensity of the product to the fluorescence intensity of the product and the substrate (ICE/caspase-1 reaction): 62%
Recombinant Human TACE
  ratio of the fluorescence intensity of the product to the fluorescence intensity of the product and the substrate (TACE reaction): 66%

## [pGlu]-Gln-Gln
Caspase-1 (ICE)
  ratio of the fluorescence intensity of the product to the fluorescence intensity of the product and the substrate (ICE/caspase-1 reaction): 63%
Recombinant Human TACE
  ratio of the fluorescence intensity of the product to the fluorescence intensity of the product and the substrate (TACE reaction): 70%

## [pGlu]-Leu
Caspase-1 (ICE)
  ratio of the fluorescence intensity of the product to the fluorescence intensity of the product and the substrate (ICE/caspase-1 reaction): 55%
Recombinant Human TACE
  ratio of the fluorescence intensity of the product to the fluorescence intensity of the product and the substrate (TACE reaction): 61%

## pyroGlu-Phe
Caspase-1 (ICE)
  ratio of the fluorescence intensity of the product to the fluorescence intensity of the product and the substrate (ICE/caspase-1 reaction): 72%
Recombinant Human TACE
  ratio of the fluorescence intensity of the product to the fluorescence intensity of the product and the substrate (TACE reaction): 84%

## [pGlu]-Val
Caspase-1 (ICE)
  ratio of the fluorescence intensity of the product to the fluorescence intensity of the product and the substrate (ICE/caspase-1 reaction): 74%
Recombinant Human TACE
  ratio of the fluorescence intensity of the product to the fluorescence intensity of the product and the substrate (TACE reaction): 81%

## [pGlu]-Met
Caspase-1 (ICE)
  ratio of the fluorescence intensity of the product to the fluorescence intensity of the product and the substrate (ICE/caspase-1 reaction): 75%
Recombinant Human TACE
  ratio of the fluorescence intensity of the product to the fluorescence intensity of the product and the substrate (TACE reaction): 83%
